EPA's ToxValDB 9.5 (doi:10.2903/j.efsa.2014.3508)

Legend:
Aphidius rhopalosiphi = test: LR50; higher = less toxic; settings: acute; duration: 48 hours; mortality
Typhlodromus pyri = test: LR50; higher = less toxic; settings: chronic/long-term; duration: 7 days; mortality
Colinus virginianus = settings: acute, oral, mortality
Coturnix japonica = settings: reproduction developmental; duration: 6 weeks; reproduction
Apis mellifera = settings: acute, mortality
Lepomis macrochirus = settings: acute; duration: 96 hours; mortality
Oncorhynchus mykiss = settings: chronic/long-term; duration: 87 days; growth
Oryctolagus sp. = settings: developmental; development
Daphnia magna = settings: chronic/long-term; duration: 21 days; mobility

`CCOc1nc(NC)nc(NC(=O)NS(=O)(=O)c2ccccc2C(=O)OC)n1` [Ethametsulfuron-methyl] showed an LR50 (Aphidius rhopalosiphi) of over 18.8 g/ha, an LR50 (Typhlodromus pyri) of 11.4 g/ha and an LC50 (Colinus virginianus; duration: 5 days, diet) of over 1160 mg/kg-day. The LD50 (Colinus virginianus) was 2250 mg/kg-day, the NOAEL (Coturnix japonica) was 229 mg/kg-day and the LD50 (Rattus norvegicus; acute, oral, mortality) was over 5000 mg/kg-day. The NOAEL (Rattus norvegicus; chronic, duration: 2 years, clinical chemistry) was 21 mg/kg-day, the LD50 (Apis mellifera; duration: 48 hours, oral, unspecified) was 40.8 µg/piece and the LD50 (Apis mellifera; duration: 72 hours, dermal) was 4.62 µg/piece. For the same compound, the LC50 (Lepomis macrochirus) was over 123 µg/mL, the NOEC (Oncorhynchus mykiss) was 5.4 mg/L and the NOAEL (Oryctolagus sp.) was under 250 mg/kg-day. The LC50 (Tagia sp.; acute, duration: 14 days, mortality) was 116 mg/kg, the NOEC (Tagia sp.; chronic/long-term, duration: 56 days, reproduction) was 27.3 mg/kg and the NOEC (Daphnia magna) was 4.7 mg/L.
